Data taken from patent US20170130052A1, “A POLYMER BASED ON A MALTODEXTRIN FOR ENCAPSULATING ORGANIC COMPOUNDS” (ROQUETTE ITALIA S.P.A., priority 2014, published 2017).
≈ marks a conversion by molar mass, not a printed value.

Assay: Solubility of ketoprofen/dexamethasone owing to encapsulation in the polymers
Settings: water

C[C@@H]1C[C@H]2[C@@H]3CCC4=CC(=O)C=C[C@]4(C)[C@@]3(F)[C@@H](O)C[C@]2(C)[C@@]1(O)C(=O)CO [Dexamethasone]
solubility: 90 µg/mL (≈ 229 µM)
